BindingDB's records for doi:10.1016/j.bioorg.2017.01.016 (CSIR-Indian Institute of Chemical Biology, 2017)
Residue numbers refer to the chain shown, from its start. pIC50, pKi: −log10 of the molar value.

Experiments:
[1] = target: T1, Seed linoleate 13S-lipoxygenase-1 (Glycine max, UniProt P08170); test: In Vitro Soybean Lipoxygenase (SLO) Inhibition Assay; settings: pH 8
T1 sequence (P08170 whole entry): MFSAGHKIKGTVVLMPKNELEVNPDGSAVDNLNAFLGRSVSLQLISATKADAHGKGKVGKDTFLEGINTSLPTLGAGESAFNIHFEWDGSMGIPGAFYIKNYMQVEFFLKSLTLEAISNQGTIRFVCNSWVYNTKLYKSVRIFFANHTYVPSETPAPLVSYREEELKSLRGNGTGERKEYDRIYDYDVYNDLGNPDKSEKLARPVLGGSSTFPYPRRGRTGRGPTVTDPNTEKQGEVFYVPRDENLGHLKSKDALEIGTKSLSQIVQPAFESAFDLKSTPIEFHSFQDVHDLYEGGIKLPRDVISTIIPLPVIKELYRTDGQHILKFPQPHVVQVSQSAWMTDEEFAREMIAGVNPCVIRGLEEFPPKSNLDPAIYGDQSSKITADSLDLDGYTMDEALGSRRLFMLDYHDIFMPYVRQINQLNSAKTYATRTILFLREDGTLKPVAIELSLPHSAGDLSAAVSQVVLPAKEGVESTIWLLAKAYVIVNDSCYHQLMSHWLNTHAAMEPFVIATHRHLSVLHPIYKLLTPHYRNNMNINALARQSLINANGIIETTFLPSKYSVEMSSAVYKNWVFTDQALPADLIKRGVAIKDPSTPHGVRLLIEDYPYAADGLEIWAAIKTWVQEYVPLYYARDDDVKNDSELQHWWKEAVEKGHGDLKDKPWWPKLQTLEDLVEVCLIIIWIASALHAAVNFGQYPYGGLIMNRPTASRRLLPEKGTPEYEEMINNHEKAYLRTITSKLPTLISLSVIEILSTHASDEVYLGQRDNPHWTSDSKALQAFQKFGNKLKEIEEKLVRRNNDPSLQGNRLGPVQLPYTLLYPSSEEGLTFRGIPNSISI
Text: Following are the compositions of the blank, control and sample.

[2] = target: T2, Lipoxygenase (Soybean, UniProt B3TDK4); test: Molecular Docking
T2 sequence (B3TDK4 whole entry): T1 sequence (P08170 whole entry) with S160E
Experimental: The crystal structure of soybean lipoxygenase-1 (PDB code: 3PZW), was used in our docking experiments. The 3D structure of 3PZW was reported by Chruszcz et al. [Chruszcz et al., Biophys. J., 95(1):1-9] using X-ray diffraction technique with a resolution of […] . The docking of ligands to the catalytic site of soybean lipoxygenase was performed using AutoDock 4.0 software (http://autodock.scripps.edu/).

Compound | pIC50 [1] | pKi [2]
CCOC(=O)c1c(C)oc(-c2ccc(Cl)cc2)c1CC(=O)c1ccc(Cl)cc1 [5-(4-Chloro-phenyl)-4[2-(4-chloro-phenyl)-2-oxo-ethyl]-2-methyl-furan-3-carboxylic acid ethyl ester (3h)] | 4.49 | 6.46
COC(=O)c1c(C)oc(-c2ccccc2)c1CC(=O)c1ccccc1 [2-Methyl-4-(2-oxo-2-phenyl-ethyl)-5-phenyl-furan-3-carboxylic acid methyl ester (3a)] | 4.11 | 6.18
CC(Cc1ccc(O)c(O)c1)C(C)Cc1ccc(O)c(O)c1 (centres undefined) [LOX inhibitor, N/A] |  | 6.63
COC(=O)c1c(C)oc(-c2ccc(Cl)cc2)c1CC(=O)c1ccc(Cl)cc1 [5-(4-Chloro-phenyl)-4[2-(4-chloro-phenyl)-2-oxo-ethyl]-2-methyl-furan-3-carboxylic acid methyl ester (3g)] | 4.49 | 6.50
COC(=O)c1c(C)oc(-c2ccc(Br)cc2)c1CC(=O)c1ccc(Br)cc1 [5-(4-Bromo-phenyl)-4[2-(4-bromo-phenyl)-2-oxo-ethyl]-2-methyl-furan-3-carboxylic acid methyl ester (3e)] | 4.89 | 7.15
CCOC(=O)c1c(C)oc(-c2ccc(Br)cc2)c1CC(=O)c1ccc(Br)cc1 [5-(4-Bromo-phenyl)-4[2-(4-bromo-phenyl)-2-oxo-ethyl]-2-methyl-furan-3-carboxylic acid ethyl ester (3f)] | 4.67 | 6.85
COC(=O)c1c(C)oc(-c2ccc(C)cc2)c1CC(=O)c1ccc(C)cc1 [Methyl 2-methyl-5-(4-methylphenyl)-4-[2-(4-methylphenyl)-2-oxoethyl]furan-3-carboxylate (3c)] | 4.66 | 6.75
CCOC(=O)c1c(C)oc(-c2ccccc2)c1CC(=O)c1ccccc1 [2-Methyl-4-(2-oxo-2-phenyl-ethyl)-5-phenyl-furan-3-carboxylic acid ethyl ester (3b)] | 3.54 | 6.06
COC(=O)c1c(C)oc(-c2ccc(C)c(Cl)c2)c1CC(=O)c1ccc(C)c(Cl)c1 [5-(3-Chloro-4-methyl-phenyl)-4-[2-(3-chloro-4-methyl-phenyl)-2-oxo-ethyl)-2-methyl-furan-3-carboxylic acid methyl ester (3i)] | 4.32 | 6.45
CCOC(=O)c1c(C)oc(-c2ccc(C)cc2)c1CC(=O)c1ccc(C)cc1 [2-Methyl-4-(2-oxo-2-p-tolyl-ethyl)-5-p-tolyl-furan-3-carboxylic acid ethyl ester (3d)] | 4.65 | 6.61
